# Assays:
# vasopressin V1a receptor = vasopressin V1a receptor (Homo sapiens, UniProt P37288); test: In-vitro vasopressin receptor binding assay, V1a
# cloned human V2 receptor = biological target: T1, cloned human V2 receptor (Homo sapiens, UniProt P30518); test: In-vitro vasopressin receptor binding assay, V2; conditions: footnote 1: IC50 values (μM); 3H-arginine-8-vasopressin
# T1 construct: expressed in transfected cells
# Description: Assay buffer is 50 mM Tris-Cl, 5 mM MgC12, 0.1% BSA (pH 7.5) containing 5 ug/ml of aprotinin, leupeptin, pepstatin, 50 ug/ml bacitracin, and 1 mM Pefabloc. H3 vasopressin is ^3H-arginine-8-vasopressin (68.5 Ci/mmol, final concentration in assay is 0.65-0.75nM). Into wells of 96-well round bottom polypropylene plates are added buffer, test compound, membrane (containing cloned human V2 receptor), and H3 vasopressin. The reaction plates are allowed to sit at room temperature for one hour. The samples are filtered through Unifilter GF/C plates (presoaked in 0.3 polyethyleneimine). The plates are washed 5 times with cold physiological saline containing 0.05% Tween 20. After drying, the bottom of the filter plates are sealed and 0.025 ml of Microscint-20 is added to each filter. The top of the plate is sealed, and the plate is counted. Non-specific binding is determined by the addition of 1.25 uM arginine-8-vasopressin in those wells. %Inh. is [formula]
# T1 sequence (P30518 whole entry): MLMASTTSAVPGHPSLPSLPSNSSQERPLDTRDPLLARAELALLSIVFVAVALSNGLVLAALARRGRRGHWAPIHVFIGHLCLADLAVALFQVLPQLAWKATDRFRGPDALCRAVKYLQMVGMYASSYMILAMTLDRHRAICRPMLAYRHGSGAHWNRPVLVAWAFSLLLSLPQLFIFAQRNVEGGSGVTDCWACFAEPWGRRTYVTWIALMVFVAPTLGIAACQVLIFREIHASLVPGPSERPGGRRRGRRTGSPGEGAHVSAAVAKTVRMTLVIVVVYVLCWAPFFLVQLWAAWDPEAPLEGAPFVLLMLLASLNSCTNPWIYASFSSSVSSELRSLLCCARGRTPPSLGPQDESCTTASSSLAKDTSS
# vasopressin V1a receptor, sequence (P37288 whole entry): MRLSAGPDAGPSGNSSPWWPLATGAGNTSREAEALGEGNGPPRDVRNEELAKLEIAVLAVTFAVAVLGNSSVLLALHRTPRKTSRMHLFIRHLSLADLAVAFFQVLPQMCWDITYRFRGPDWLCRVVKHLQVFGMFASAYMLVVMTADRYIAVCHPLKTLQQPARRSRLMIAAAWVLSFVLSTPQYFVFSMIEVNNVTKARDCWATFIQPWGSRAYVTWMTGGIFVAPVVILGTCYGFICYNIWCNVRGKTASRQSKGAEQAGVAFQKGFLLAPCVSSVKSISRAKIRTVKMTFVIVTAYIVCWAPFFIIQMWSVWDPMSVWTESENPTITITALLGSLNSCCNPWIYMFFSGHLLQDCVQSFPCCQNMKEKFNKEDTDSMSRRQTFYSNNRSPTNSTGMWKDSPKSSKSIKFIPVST
structure (smiles),measurement,setting,value
"O=C(O)CC1CCN(C(=O)c2ccc(NC(=O)c3ccccc3-c3ccccc3)cc2)c2ccccc2S1 (centres unmarked) [Compound 29, 2-Carboxymethyl-5-(4-(2-phenylbenzolylamino)benzoyl)-1,5-benzothiazepine]",inhibition at 0.1 µM,"vasopressin V1a receptor; 0.1 μM test compound, read-out: Receptor Binding (% Inh. @ concentration in μM) V1a",16%
same,IC50,cloned human V2 receptor,0.004 µM
same,melting point,,204 to 208 °C
"CC(C)(N)C(=O)NCCC1CCN(C(=O)c2ccc(NC(=O)c3ccccc3-c3ccccc3)cc2)c2ccccc2S1.Cl (centres unmarked) [Compound 39, 2-[2-Amino-2-methylpropionamido]-ethyl-5-[4-(2-phenylbenzoylamino)benzoyl]-1,5-benzothiazepine Hydrochloride]",Receptor Binding (% Inh. @ concentration in μM) V1a,vasopressin V1a receptor; concentration not given,0%
same,IC50,cloned human V2 receptor,0.017 µM

# — US6489321B1, “Nonpeptide substituted benzothiazepines as vasopressin antagonists” (Ortho-McNeil Pharmaceutical, Inc., priority 1999, dated 2002)
